For 87 molecules, melting point results are on record in a melting point compilation (Tetko et al.; mined from patent text by program, amines drawn as free bases though some values may be those of a salt).

The structures appear in SMILES notation.

By melting point is commonly meant the temperature, or range, at which the solid turns liquid.

On to `CC(C)N1CCN(c2ccc(OCCCCCCC(O)(Cn3ccnc3)c3ccc(Cl)cc3Cl)cc2)CC1` (configuration not stated), for which the melting point lay within 143 to 145 °C.
The same measure for `CCCCOC(=O)[C@H]1CN(c2cc(F)c(N3CCOCC3)c(F)c2)C(=O)O1`: 99 to 100 °C; for `O=S(c1ccccc1)c1ccc(Cc2csc(Br)n2)cc1` (configuration not stated): 82 °C; for `CC(C)(C)c1ccc(/C=C/C(=O)Nc2ccc3ccn(CCO)c3c2)cc1`: 178 °C.
The same measure for `CNc1cc(NS(=O)(=O)c2ccccc2)ccc1[N+](=O)[O-]`: 172 to 174 °C; for `CCCCOC(=O)n1ccc(NC(=O)Nc2cccc3c2C2CCCCN2C3=O)n1` (configuration not stated): 136 °C.
The value for `COc1cc(Oc2cccc3c2NC(=O)C3)cc(OC)c1OC` was 170 to 171 °C; that for `O=Cc1cn(-c2ccc(F)cc2)c2ccc(Cl)cc12` was 152 to 154 °C; that for `CN1C(=O)C2(COc3cc4c(cc32)OCCO4)c2c(C(N)=O)cccc21` (configuration not stated) was over 250 °C.
Molecule `O=[N+]([O-])c1sc(-c2cccnc2)nc1Cl` displayed a melting point of 110 to 112 °C.
The value for `CN(C(=O)CNc1nc(-c2ccc(C(F)(F)F)cc2)nc(-c2ccccc2)c1Cl)C1CC1` was 188 to 189 °C.
Take `CC(c1ccc2c(c1)N(C)c1cc(Cl)ccc1S2)N(O)C(N)=O` (configuration not stated): the melting point is 176 to 177 °C.
The value for `COc1cc2c(c(N)c1OC)C(=O)C(=Cc1cc(C)c(O)c(C)c1)C2` was 238 to 240 °C; that for `Cc1cnc2sc(S(=O)(=O)c3ccccc3)nn2c1=O` was 198 to 200 °C.
The value for `O=C(c1ccncc1)[N+]1([O-])CCN(C2c3ccc(Cl)cc3OCc3cccnc32)CC1` (configuration not stated) was 206 to 208 °C; that for `CCC[C@H](C)C(=O)O[C@H]1CCC=C2C=C[C@H](C)[C@H](CC[C@@H]3C[C@@H](O)CC(=O)O3)[C@H]21` was 110 to 112 °C; that for `CCOP(=S)(OCC)Oc1cc(C(=O)OC)sc1C(=O)OC` was 50 °C.
Molecule `NC(=O)c1cccnc1N1CCN(CC(O)CO)CC1` (configuration not stated) yielded a melting point of 140 to 142 °C.
The same measure for `CSCc1cc(N)ccc1N1C(=O)c2ccc(Cl)cc2C1=O`: 134 to 137 °C.
The value for `CC(=O)NC1CCN(Cc2ccccc2)C1C` (configuration not stated) was 51 to 54 °C; that for `CCn1cc(C(=O)O)c(=O)c2cc(F)c(N3CCC(NC(=O)OC(C)(C)C)C3)c(C)c21` (configuration not stated) was 184 to 188 °C.
The same measure for `Clc1ccc(OCc2cccs2)cc1`: 45 to 47 °C.
For the molecule `Cc1csn(-c2ccc(Cl)cc2)c1=O`, the melting point is 157 to 159 °C.
The same measure for `COc1ccc(Sc2oc3ccc(Cl)cc3c2C)nn1`: 131 to 134 °C; for `C#CCOC(=O)Oc1ccc(S(=O)(=O)c2ccc(OC(=O)OCC#C)cc2)cc1`: 112 to 114 °C.
The value for `COCCNC(=O)c1ccc(C(=O)N2CCN(c3ncccc3NC(C)C)CC2)cc1` was 120 to 121 °C; that for `C[C@H](NC(=O)c1ccc(Cn2nnc(-c3ccc(OC(=O)C(C)(C)C)cc3)n2)cc1)C(=O)O` was 192 to 195 °C.
The value for `Cc1cccc(-n2c(-c3sc(NC(=O)c4ccccc4)nc3-c3ccccc3)nc3ccccc3c2=O)c1` was over 275 °C.
`Cc1ccc(C2N=C(c3ccccc3)NC3=C2CCc2c(-c4ccccc4)cc(-c4ccccc4)nc23)cc1` (configuration not stated) registered a melting point of 128 to 133 °C.
The same measure for `c1ccc(CN2CCOC(CN3c4ccccc4CCc4ccccc43)C2)cc1` (configuration not stated): 139 to 140 °C; for `CC1(C)CC(=O)C2=C(C1)NC1=C(C(=O)CC(C)(C)C1)C2c1ccc(Cl)c(Sc2ccccc2)c1`: 202 to 204 °C; for `COC(=O)C(=CNc1ccnc(-c2ccncc2)n1)C(=O)OC`: 209 to 211 °C.
For the molecule `c1ccc(-c2nnc(-c3ccccn3)o2)cc1`, the melting point lay in the range of 127 to 128 °C.
The value for `CN1CCN(C2c3ccccc3-c3[nH]c(=O)c(=O)[nH]c32)CC1` (configuration not stated) was 263 to 265 °C; that for `O=Cc1c[nH]c2c1ccc1c3cc([N+](=O)[O-])ccc3[nH]c12` was over 250 °C; that for `CCn1cc(C(=O)O)c(=O)c2cc([N+](=O)[O-])c(-c3cc(C)nc(C)c3)cc21` was 289 to 291 °C.
As for `COc1ccc(C(O)c2ccc(OC)c(OCc3ccccc3)c2)cc1OCc1ccccc1`, the melting point was in the range of 103 to 105 °C.
With `COC(=O)CCCc1cc2cc(Cl)ccc2n1S(=O)(=O)c1ccc2nc(NC(C)=O)sc2c1`, the melting point came out at 120 °C.
The same measure for `O=C(O)c1ccc(-c2n[nH]c(-c3ccccc3)n2)cc1`: over 300 °C; for `CC(=O)CCCN1C(=O)c2ccccc2S1(=O)=O`: 90 to 93 °C.
The same measure for `CP(=O)(O)CCC(=O)O`: 95 °C; for `O=[N+]([O-])c1cnn(C2CC2)c1`: 44 to 45 °C; for `Cc1c(C(=O)O)cnn1-c1c(Cl)cc(Cl)cc1Cl`: 184 to 186 °C.
Consider `CCCCc1nc2sc3c(NCc4ccco4)ncnc3c2c2c1COC(C)(C)C2`, for which the melting point was in the range of 66.1 to 68.5 °C.
The same measure for `CCC(C)(CC)c1nnc(NC(=S)c2c(OC)cccc2OC)s1`: 202 to 204 °C.
The same measure for `C[C@H](c1ccccc1)N1C(=O)N[C@@H]2C(=O)OC[C@@H]21`: 123 to 125 °C.
With `CCCC1COC(Cn2nc[nH]c2=S)(c2ccc(Cl)cc2Cl)O1` (configuration not stated), the melting point was 128 °C.
The same measure for `OCCCc1oc(Sc2ccccn2)nc1-c1ccc(Cl)cc1`: 70 to 71 °C.
The value for `CCCCS(=O)(=O)N(CCN(CC)CC)c1ccc(C(Cl)=C(c2ccccc2)c2ccccc2)cc1` was 65 to 70 °C; that for `COC(=O)c1ccc(-c2ccc(OC)cc2)cc1` was 170 to 173 °C; that for `COc1ccc(S(=O)(=O)Nc2cccnc2Nc2ccc(O)cc2)cc1` was 178 to 179 °C.
Turning to `O=C(O)Cc1cc(Br)c(-c2ccc(Cl)cc2)s1`, the melting point fell in the range of 136 to 137 °C.
The molecule `COCN1C(C)=C(C(=O)OCc2ccccc2)C(c2cccc(Cl)c2Cl)C(C(=O)OCc2ccccc2)=C1C` showed a melting point of 116 to 117 °C.
The same measure for `O=c1oc2c(c(O)c1Sc1ccc(Cl)cc1)c(=O)n(Cc1ccccc1)c1ccccc21`: 273 to 275 °C.
The value for `N#Cc1ccc(Nc2nc(N)nc(Cc3c(Cl)ccc4[nH]ccc34)n2)cc1` was 267 to 268 °C; that for `Cn1c2cc(Cl)ccc2c2c(CC#N)nn(-c3ccccc3)c(=O)c21` was 305 to 315 °C; that for `Nc1ccc(-n2ccn(CCCC3CCCCC3)c2=O)cc1` was 83 to 85 °C.
The same measure for `Cc1cc(-c2cc(C(F)(F)F)n3ncc(C(=O)Nc4cccc(S(=O)(=O)N5CCN(C)CC5)c4)c3n2)ccc1C(F)(F)F`: 199 °C; for `CC1(C)CON(Cc2ccc(NC(=O)C3CC3)cc2Cl)C1=O`: 191 to 193 °C.
The molecule `CCc1nc2c(N)nc3cc(Oc4ccc(C(=O)OC)cn4)ccc3c2s1` had a melting point of 213 to 214 °C.
The same measure for `CS(=O)(=O)c1ccc(C(=O)Cl)c(Cl)c1-c1nccs1`: 97 to 98 °C; for `Cn1c(=O)c(Oc2c(F)cccc2F)cc2cnc(S(C)(=O)=O)nc21`: 215 to 216 °C.
The value for `COc1nc2cccnc2n(-c2ccc(Cl)cc2)c1=O` was 242 to 243 °C; that for `O=C(O)/C=C/c1ccc(-c2nc3c(=O)n(Cc4ccccc4)c(=O)n(Cc4ccccc4)c3[nH]2)cc1` was over 300 °C; that for `CCNC(=S)NS(=O)(=O)c1cc2c(cc1OC)OC(C)(C)C(NC(=O)c1cc(F)ccc1OC)C2` (configuration not stated) was 211 °C.
`O=C1c2ccccc2C(O)N1CCCOc1ccncc1` (configuration not stated) registered a melting point of 124 to 125 °C.
The same measure for `O=C(Nc1ccc(-n2nc(C(F)(F)F)cc2Br)cc1)c1ccncc1Cl`: 79 to 82 °C; for `CC1(C)CC(c2ccc(Cl)cc2)=C(c2ccc(S(N)(=O)=O)cc2)C1`: 144 to 145 °C; for `CNC(=O)NC1CCCCc2sccc21` (configuration not stated): 220 to 222 °C.
Molecule `O=C(O)CCc1ccc(CO)cc1` displayed a melting point of 124 to 126 °C.
The value for `CC(C)=CCN1Cc2c(Cl)ccc([N+](=O)[O-])c2NC[C@@H]1C` was 60 to 62 °C; that for `CCC(=O)N[C@@H](C)C(=O)N1CCC[C@H]1C(=O)O` was 169 to 171 °C; that for `O=C(Nc1cccc(S(=O)(=O)N2CCCC2CO)c1)c1cnn2c(C(F)(F)F)cc(-c3ccc(Cl)cc3)nc12` (configuration not stated) was 227 to 229 °C.
For the molecule `CCONC(=O)c1cc(-c2ncc(C(F)(F)F)cc2Cl)ccc1Cl`, the melting point lay in the range of 162 to 163 °C.
The same measure for `O=S(=O)(Nc1cccc(COc2cccc3cccnc23)c1)c1ccc(F)cc1`: 206 to 207 °C.
The molecule `CC(C)CC(=O)Nc1cccc(-c2ccnc3c(-c4cccs4)cnn23)c1` registered a melting point of 148 to 150 °C.
In turn, `COC(=O)Cn1c(Cc2ccccc2)ccc(N)c1=O` came in with a melting point of 134 to 136 °C.
The value for `CC(=O)OC1CSC(Oc2ccc(-c3ccnc(F)c3)nc2Cl)C(OC(C)=O)C1OC(C)=O` (configuration not stated) was 226 °C; that for `O=C(Nc1ccc(F)cc1)c1ccccc1F` was 102 to 104 °C; that for `O=C(NCCCN1CCCCC1)c1cccc(Nc2ncnc3[nH]cc(C(=O)c4ccccc4)c23)c1` was over 300 °C.
The same measure for `CCCCCCCC/C=C\CCCCCCCC(=O)Nc1nc(CC(=O)O)cs1`: 106 to 108 °C; for `O=C(NCCCCCCOC(=O)N1CCC(OC(=O)NC2CCCCC2)CC1)Oc1ccc(Oc2ccccc2)cc1`: 138 to 142 °C; for `CC1(S(=O)(=O)N2C[C@@H](Cl)C[C@@H]2CCl)C=CC=CC1` (some centres not stated): 103 to 105 °C.
Molecule `COC1=NS(=O)(=O)N(Cc2ccccc2)C(N)=N1` showed a melting point of 141 to 144 °C.
The value for `Cn1c(COc2ccc(CC3SC(=O)NC3=O)cc2)nc2ccc(Oc3ccc(NC(=O)NC45CC6CC(CC(C6)C4)C5)cc3)cc21` (configuration not stated) was 164 to 167 °C; that for `CCOC(=NC(=O)c1ccc(F)cc1)N1Cc2ccccc2-c2ccccc2C1` was 109 to 110 °C; that for `O=c1c(O)c(-c2ccc[nH]2)oc2ccccc12` was 201 to 203 °C.
